One series concerns the target T1, RAGE/S100B (Homo sapiens, UniProt Q15109).
T1 construct: purchased R&D Systems (Minneapolis, Minn.)
Put plainly: Solid phase binding assay, RAGE to S100b calgranulin. Particulars: Table 2. As for the experimental part:
(§1) Solid phase binding assays. Solid phase binding assays were used to study the ability of SAGEs to inhibit RAGE binding to its ligands. For studies of the effect of SAGEs on RAGE binding to its ligands, polyvinyl 96-well plates were coated with 5 μg/well of specific ligand (CML-BSA, HMGB-I or S100b calgranulin). Plates were incubated overnight at 4° C. and washed thrice with PBS-0.05% Tween-20 (PBST). Separately, RAGE-Fc chimera (100 μL containing 0.5 μg/ml in PBST-0.1% BSA) was incubated with an equal volume of serially diluted SAGEs (0.001 to 1,000 μg/ml in PBST-BSA) overnight at 4° C. The following day, 50 μL of RAGE-SAGE mix was transferred to each respective ligand-coated well and incubated at 37° C. for 2 h. Wells were then washed four times with PBST. To detect bound RAGE, 50 μL of anti-RAGE antibody (0.5 μg/ml) was added to each well, the mixture was incubated for 1 h at room temperature, and wells were washed again four times with PBST. Horse-radish peroxidase conjugated secondary antibody (1:10,000 antibody dilution in PBST; 50 μL per well) was added, wells were incubated for 1 h at room temperature, and then washed once with PBST. A colorimetric reaction was initiated by addition of 50 μL of tetramethyl benzidine chromogen (TMB single solution chromogen) and terminated after 15 min by addition of 50 μL of 1 N HCl. Absorbance at 450 nm was read using an automated microplate reader.

For a further series, the system named is RAGE. Description: CML-BSA-induced RAGE expression in ARPE-19 cells (immunoblot). Format: cell-based, human. Particulars: cells grown on CML-BSA. The source says:
Activated complement and RAGE induce angiogenic and pro-inflammatory signaling in cultured RPE cells. Experiments studying the biology of RAGE in cultured RPE cells using the ARPE-19 human RPE cell line were consucted. As shown in immunoblots (FIG. 17), ARPE-19 cells express at least 4 isoforms of RAGE ranging from 45-50 kDa in cell lysates, and secrete these isoforms into conditioned media. […] Because RAGE ligation activates the transcription factor NF-κB, enhanced expression of RAGE greatly promotes pro-inflammatory signaling. […] This would prevent “feed-forward” pro-inflammatory increases in RAGE expression itself by RAGE ligation.
A general note: A western blot detects proteins with antibodies after separation by electrophoresis.

The target in a further series is T2, P-Selectin/PSGL (Homo sapiens, UniProt P16109).
T2 construct: purchased R&D Systems (Minneapolis, Minn.)
Put plainly: U937 monocyte binding to P-selectin (cell binding assay). Particulars: Table 2; U937 binding to P-selectin-Fc. As for the experimental part: (§2) Cell Binding Assays. The effect of SAGEs on binding of U937 monocytes to P-selectin or RAGE was studied in high-bind micro plates coated with 8 μg/ml protein A ([…]) in 0.2 M carbonate-bicarbonate buffer (pH 9.4). Plates were washed with phosphate buffered saline containing 1% BSA (PBS-BSA), and P-selectin-Fc or RAGE-Fc chimera (50 μL containing 1 μg) was added to each well and incubated for 2 h at room temperature or overnight at 4° C., respectively. Following incubation, wells were washed twice with PBS-BSA. […] As a negative control, 50 μL of 10 mM EDTA was added to select wells to prevent cell binding through sequestration of calcium. At the end of the incubation period, 50 μL of U937 cells (10^5 cells/well, calcein-labeled according to manufacturer's instructions) were added to each well and plates were incubated an additional 30 min at room temperature. The wells were then washed thrice with PBS, and bound cells were lysed by addition of 100 μL of Tris-TritonX-100 containing buffer. Fluorescence was measured on a microplate reader using excitation of 494 nm and emission of 517 nm.

The subject of a further series is ARPE-19 cells. Description: AGE-induced apoptosis of ARPE-19 cells (Live/Dead stain). The format is cell-based, human. Particulars: AGE-BSA 25 μM, 40 h, test substance 200 μM. As to the method:
The ability of AGE products to induce RPE cell apoptosis was investigated. ARPE-19 cells were grown to confluence on round coverslips, then transferred to new dishes for exposure to 25 μM AGE-BSA for 40 h. Apoptosis was then assayed with Molecular Probes Fixable Live/Dead Cell Stain Kit (LI 1101, Eugene, Oreg.). […] Nuclei are stained […] with DAPI; dead cells are stained green. A. BSA control. Some dead cells are noted at the edges of the coverslip, but live and dead cells are interspersed at the interface. B. AGE-BSA (25 μM). Significant cell death is seen around the edges, and the boundary between live and dead cells is stark. C. AGE-BSA (25 μM)+ODSH (200 μM). […] D. AGE-BSA (25 μM)+P-OSMeHA (200 μM) (GM-11 1101). […] Apoptosis appeared to advance inward from the edges of cells cultured on round cover slips. RAGE is prominently expressed in RPE cells where it may be selectively expressed on the basal membrane as in other human epithelial cells. […] In contrast, AGE in drusen, which accumulates between retinal pigment epithelium and Bruch's membrane, would have ready access to basally located RAGE, optimally positioning AGE/RAGE signaling to mediate the localized RPE apoptosis that constitutes so-called “geographic atrophy” in age-related macular degeneration. […]

In a further series the target is T3, human leukocyte elastase (Homo sapiens, UniProt P08246).
T3 sequence (P08246 30-267): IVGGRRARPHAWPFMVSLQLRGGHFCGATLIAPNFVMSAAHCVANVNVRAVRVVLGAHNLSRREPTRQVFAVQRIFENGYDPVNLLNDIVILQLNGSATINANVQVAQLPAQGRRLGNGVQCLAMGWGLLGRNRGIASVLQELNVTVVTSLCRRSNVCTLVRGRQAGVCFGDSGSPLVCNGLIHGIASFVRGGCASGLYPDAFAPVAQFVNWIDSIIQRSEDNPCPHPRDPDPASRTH
Put plainly: Human leukocyte elastase activity assay, chromogenic substrate. Format: biochemical. Particulars: Table 2. The text has this:
Enzymatic assays. […] Nat Biotech 26:669-675, 2008).

Another series concerns the target T4, RAGE/CML-BSA (Homo sapiens, UniProt Q15109).
T4 construct: purchased R&D Systems (Minneapolis, Minn.)
Put plainly: Solid phase binding assay, RAGE to CML-BSA. Particulars: Table 2. As to the method: as §1

A further series has as its target T5, RAGE/Mac-1 (Homo sapiens, UniProt Q15109).
T5 construct: purchased R&D Systems (Minneapolis, Minn.)
Description: U937 monocyte binding to RAGE (cell binding assay). As to conditions: Table 2; U937 binding to RAGE-Fc. As to the method: as §2

Another series addresses T6, RAGE/HMGB1 (Homo sapiens, UniProt Q15109).
T6 construct: purchased R&D Systems (Minneapolis, Minn.)
Put plainly: Solid phase binding assay, RAGE to HMGB-1 (amphoterin). As to conditions: Table 2. As for the experimental part: as §1

In a further series the test system is IIa. Description: Anti-IIa anticoagulant activity. Format: biochemical.
Series [1] deals with T7, Hageman factor (Factor XII) (Homo sapiens, UniProt P00748).
T7 sequence (P00748 20-615): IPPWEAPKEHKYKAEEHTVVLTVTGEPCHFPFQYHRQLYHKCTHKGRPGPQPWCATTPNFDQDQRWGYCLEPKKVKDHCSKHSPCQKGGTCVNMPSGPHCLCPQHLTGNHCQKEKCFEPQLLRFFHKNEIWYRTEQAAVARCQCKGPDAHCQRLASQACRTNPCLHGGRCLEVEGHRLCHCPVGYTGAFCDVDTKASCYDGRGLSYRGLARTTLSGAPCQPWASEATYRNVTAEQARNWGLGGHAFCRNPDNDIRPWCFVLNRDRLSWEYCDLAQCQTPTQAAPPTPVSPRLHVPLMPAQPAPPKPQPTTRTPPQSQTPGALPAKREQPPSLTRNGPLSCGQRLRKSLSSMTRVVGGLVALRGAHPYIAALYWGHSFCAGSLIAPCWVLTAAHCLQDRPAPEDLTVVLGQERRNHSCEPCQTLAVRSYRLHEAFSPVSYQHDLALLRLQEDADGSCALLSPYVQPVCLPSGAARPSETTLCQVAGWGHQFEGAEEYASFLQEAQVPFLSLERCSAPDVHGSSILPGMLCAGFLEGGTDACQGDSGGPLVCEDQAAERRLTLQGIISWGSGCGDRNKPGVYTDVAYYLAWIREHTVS
Put plainly: Activation of Hageman factor (Factor XII) in pooled human plasma, amidolytic activity. As to conditions: Table 2, table line reads IC50 values.
Description: Enzymatic assays. […] Pooled human plasma (5 μl) was incubated with 100 μl of SAHA (0.1 to 1000 μg/ml) in 0.05 M HEPES containing Triton X-100 for 5 min at 5° C.
SAGEs were screened for their ability to stimulate intrinsic coagulation (activation of Hageman factor). Pooled human plasma was incubated with heparin or low molecular weight (Lmw) sulfated and fluoroalkylated HAs (Lmw-OSFHA-1, Lmw-OSFHA-2) and amidolytic activity was determined using the substrate D-cyclohydrotyrosyl-Gly-Arg-p-NA.

In a further series the test system is Xa. Description: Anti-Xa anticoagulant activity. Format: biochemical.

Entries after “also recorded” stand apart in the source; their conditions may differ.

T5 sequence (Q15109 with tags, fused parts or gaps limits assumed): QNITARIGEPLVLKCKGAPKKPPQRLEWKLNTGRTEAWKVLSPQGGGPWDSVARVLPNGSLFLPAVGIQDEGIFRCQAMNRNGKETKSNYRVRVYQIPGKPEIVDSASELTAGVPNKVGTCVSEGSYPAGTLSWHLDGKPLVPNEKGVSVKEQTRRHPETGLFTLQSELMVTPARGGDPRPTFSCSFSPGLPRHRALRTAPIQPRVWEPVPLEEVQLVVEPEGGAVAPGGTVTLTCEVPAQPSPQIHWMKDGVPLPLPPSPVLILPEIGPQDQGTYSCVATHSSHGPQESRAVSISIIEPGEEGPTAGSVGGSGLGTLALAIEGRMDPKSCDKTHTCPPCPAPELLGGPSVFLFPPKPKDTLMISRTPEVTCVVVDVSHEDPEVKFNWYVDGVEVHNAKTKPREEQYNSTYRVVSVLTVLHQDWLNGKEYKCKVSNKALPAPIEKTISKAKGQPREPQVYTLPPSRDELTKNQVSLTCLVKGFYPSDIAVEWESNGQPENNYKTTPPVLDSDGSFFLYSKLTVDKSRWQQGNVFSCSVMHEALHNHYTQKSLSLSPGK
T6 sequence (Q15109 with tags, fused parts or gaps limits assumed): as above
T4 sequence (Q15109 with tags, fused parts or gaps limits assumed): as above
T1 sequence (Q15109 with tags, fused parts or gaps limits assumed): as above
T2 sequence (P16109 with tags, fused parts or gaps limits assumed): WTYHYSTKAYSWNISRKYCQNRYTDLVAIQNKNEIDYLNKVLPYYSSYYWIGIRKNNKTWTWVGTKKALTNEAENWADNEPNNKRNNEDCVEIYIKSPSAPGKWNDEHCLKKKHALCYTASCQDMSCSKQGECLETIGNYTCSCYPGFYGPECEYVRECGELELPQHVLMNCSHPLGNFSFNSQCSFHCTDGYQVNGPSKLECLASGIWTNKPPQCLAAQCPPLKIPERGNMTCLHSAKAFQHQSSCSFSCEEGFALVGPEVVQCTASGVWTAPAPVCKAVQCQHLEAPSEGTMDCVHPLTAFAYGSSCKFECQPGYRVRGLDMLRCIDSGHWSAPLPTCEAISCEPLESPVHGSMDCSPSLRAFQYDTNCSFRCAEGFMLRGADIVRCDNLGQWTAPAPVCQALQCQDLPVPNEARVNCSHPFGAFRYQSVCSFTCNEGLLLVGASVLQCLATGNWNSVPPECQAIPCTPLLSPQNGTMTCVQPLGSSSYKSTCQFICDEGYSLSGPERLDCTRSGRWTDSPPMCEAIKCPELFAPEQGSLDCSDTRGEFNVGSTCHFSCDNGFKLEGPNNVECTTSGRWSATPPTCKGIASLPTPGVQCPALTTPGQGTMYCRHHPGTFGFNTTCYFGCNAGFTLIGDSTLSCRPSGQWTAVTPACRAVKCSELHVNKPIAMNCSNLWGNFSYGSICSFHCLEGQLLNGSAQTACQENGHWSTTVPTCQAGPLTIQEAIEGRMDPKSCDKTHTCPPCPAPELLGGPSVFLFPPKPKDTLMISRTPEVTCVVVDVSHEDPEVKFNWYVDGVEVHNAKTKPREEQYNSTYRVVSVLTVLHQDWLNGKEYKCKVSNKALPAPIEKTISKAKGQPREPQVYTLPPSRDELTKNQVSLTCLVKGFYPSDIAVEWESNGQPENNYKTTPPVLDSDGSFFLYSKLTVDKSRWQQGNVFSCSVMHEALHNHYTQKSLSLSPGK

Substance “2-0, 3-0 desulfated heparin [ODSH, reference compound]” yielded an RAGE/S100B at RAGE/S100B of 4.2 µg/mL. For the same substance, the “up-regulation of RAGE expression” value in the series on RAGE was “prevented up-regulation of RAGE expression”. The substance also gave a P-Selectin/PSGL at P-Selectin/PSGL of 1.1 µg/mL. In addition, the AGE-induced apoptosis result in the series on ARPE-19 cells is “Apoptosis is reduced; also recorded: inhibited”. Besides, the “Leukocyte Elastase” value at human leukocyte elastase is 0.22 µg/mL. At RAGE/CML-BSA, this substance returned an RAGE/CML-BSA of 8.6 µg/mL. For the same substance, on RAGE/Mac-1, the RAGE/Mac-1 was determined as 0.09 µg/mL. Further, the RAGE/HMGB1 on RAGE/HMGB1 was found to be 0.23 µg/mL.
In the series on IIa, Heparin [reference compound] gave an anti-IIa anticoagulant activity of 150 U/mg. The substance further showed an RAGE/S100B at RAGE/S100B of 1.29 µg/mL. The same substance returned a P-Selectin/PSGL on P-Selectin/PSGL of 0.3 µg/mL. On human leukocyte elastase, the “Leukocyte Elastase” value was 0.21 µg/mL. In addition, on RAGE/CML-BSA, the RAGE/CML-BSA came to 0.39 µg/mL. Moreover, in series [1], the “Hageman Factor” value worked out at 0.4 µg/mL. Moreover, the RAGE/Mac-1 on RAGE/Mac-1 was determined as 0.11 µg/mL. Also, the RAGE/HMGB1 at RAGE/HMGB1 was 0.04 µg/mL. The anti-Xa anticoagulant activity in the series with Xa came out at 150 U/mg.
